Reference: publication PMC6017358 (Molecules : A Journal of Synthetic Chemistry and Natural …, 2018)
In brackets after ≈: the same amount, converted by molar mass. Several values for one entry are separate records, joined by “and”; a condition that tells them apart may be missing. Equal values may be shown once. Where a name gives a salt, the structure may show the parent alone. Read-outs that look alike come from different tables or passages of the source.

Columns and labels:
[1] = tested on: breast cancer cell line MCF-7; test: In vitro cytotoxicity viability assay (crystal violet); type: cell-based; settings: Homo sapiens, MCF7
Procedure: (§1) The cells were seeded in 96-well plates at a cell concentration of 1 × 10^4 cells per well in 100 µL of growth medium. Fresh medium containing different concentrations of the test sample was added 24 h after seeding. Serial two-fold dilutions of the tested chemical compound were added to confluent cell monolayers dispensed into 96-well, flat-bottomed microliter plates (Falcon, NJ, USA) using a multichannel pipette. The microliter plates were incubated at 37 °C in a humidified incubator with 5% CO2 for a period of 48 h. Three wells were used for each concentration of the test sample. Control cells were incubated without test sample and with or without DMSO. The little percentage of DMSO present in the wells (maximal 0.1%) was found not to affect the experiment. After incubation of the cells at 37 °C, various concentrations of sample were added, and the incubation was continued for 24 h and viable cells yield was determined by a colorimetric method. In brief, after the end of the incubation period, media were aspirated and the crystal violet solution (1%) was added to each well for at least 30 min. The stain was removed and the plates were rinsed using tap water until all excess stain is removed. Glacial acetic acid (30%) was then added to all wells and mixed thoroughly, and then the absorbance of the plates were measured after gently shaken on microplate reader (TECAN, Inc., Morrisville, NC, USA), using a wavelength of 490 nm. All results were corrected for background absorbance detected in wells without added stain. Treated samples were compared with the cell control in the absence of the tested compounds. All experiments were carried out in triplicate. The cell cytotoxic effect of each tested concentration was calculated. The optical density was measured with the microplate reader (SunRise, TECAN, Inc., Morrisville, NC, USA) to determine the number of viable cells and the percentage of viability was calculated as [1 − (ODt/ODc)] × 100% where ODt is the mean optical density of wells treated with the tested sample and ODc is the mean optical density of untreated cells. The relation between surviving cells and drug concentration is plotted to get the survival curve of each tumor cell line after treatment. […] The biological evaluation was done at the Regional Center for Mycology & Biotechnology, Al-Azhar University.

[2] = tested on: lung cancer cell line A-549; test: as above; type: cell-based; settings: Homo sapiens, A549
Procedure: as §1

rats = settings: oral administration in rats; cited from earlier work

CP(=O)(O)CCC(N)C(=O)O (centres unmarked) [Phosphinothricin, 2-amino-4-(hydroxymethyl-phosphinylbutyric acid ammonium salt]
IC50 [1]: 32.6 µg/mL and 180 µM | IC50 [2]: 45.8 µg/mL and 253 µM | LD50 (rats): 2170 mg/kg

NCCCC(O)(P(=O)(O)O)P(=O)(O)O [Alendronate, reference compound]
IC50 ([1]; MCF-7, read-out: IC50): 89.4 µg/mL (≈ 359 µM) | IC50 ([2]; read-out: IC50): 19 µg/mL (≈ 76.3 µM)
